Measurements published in US8476317B2, “N-alkylcarbonyl-amino acid ester compounds and their use for cough and pharyngitis” (priority 2011, dated 2013).

Experiments:
oral cavity / oropharynx = assay: Cooling in oral cavity after application on dorsal surface of tongue; type: in vivo, human; settings: for sensory irritation in oral cavity: 2 to 5 mg on tongue
Experimental: The subject is instructed to close and hold the substance in the mouth for at least 10 seconds and not to swallow. The description of sensations is then recorded at 5 to 10 minute intervals.
The compounds of Formula 1 are white crystalline solids at room temperatures. These compounds were tested as the pure powder (>95% purity, by HPLC analysis), or mixed 1:1 with powdered or granulated sugar. The test substances were applied at 2 to 5 mg on the mid-point of the dorsal surface of the tongue using a metal spatula or a plastic applicator. After depositing the test substance on the tongue, the subject was instructed to keep the mouth closed and allow the fluids of the mouth to inter-mix with the test substance and to distribute it to the back of the mouth (oropharynx). The presence and duration of subjective sensations from the mouth was then recorded.

philtrum skin [1] = settings: ˜10 mg/ml on the skin; as shown in U.S. 20080227857; cited from earlier work
philtrum skin [2] = assay: Cooling on facial (philtrum) skin, ointment; type: in vivo, human; settings: for Philtrum Skin (min), duration of cooling: 5 mg/ml in Aquaphor ointment
Excerpt: A reliable place for topical application is the skin above the upper lip (above the vermilion border of the lips), on the philtrum, lateral to the philtrum until the nasolabial folds, and on the lower nostrils (subnasale). This part of the face is known to be densely innervated with cold receptors, second only to the surfaces of the eyeball and anogenitalia. At this locus, tingling, cool and cold sensations in the skin may be experienced and rated for time of onset and intensity.
The intervals for recording sensations are 5 to 10 minutes, until two successive zeroes are obtained. The results (shown in FIG. 1) are averaged values of 4 to 6 separate trials in the same individual. The data are plotted using SigmaPlot® (Systat Software, Point Richmond Calif.) and a smoothing function with a negative exponential was used for analysis and statistical fit of the results. Confirmatory trials of cooling action of the long-acting NACE compounds were obtained in 2 to 4 individuals but not quantified for some because of the large number of chemicals that were evaluated.
(§1) The onset of drug action is taken as the time to reach 2 units of coolness intensity, and offset of drug action is the time when coolness intensity drops below 2, after previously surpassing 2 units. The duration of cooling action is defined as the offset time minus the onset time. […] The quality of the sensation is noted, for example, as pure refreshing coolness, or if the sensation is accompanied by irritation (stinging or burning). The quality of the sensation is not rated for intensity.
For bioassay on the skin, approximately 30 mg was stirred and dissolved in 3 g of warm liquid Aquaphor® ointment to a yield a 40 mM (˜1% wt/vol) ointment. The exact amount was adjusted so that the molar equivalent was about 35 to 40 mM. After cooling, 40 to 70 mg of the solid ointment was placed on the tip of a plastic stick and applied to the skin above the upper lip, on the philtrum, and lateral to the philtrum, up to the nasolabial folds, of test subjects and the onset and duration of cooling sensations noted.
The intervals for recording sensations were 5 to 10 minutes, until two successive zeroes were obtained. The results (shown in FIG. 1) are averaged values of 4 to 6 separate trials in the same individual. The data are plotted using SigmaPlot® (Systat Software, Point Richmond, Calif., USA) and a smoothing function with a negative exponential was used for analysis and statistical fit of the results.
as §1, with “was” for “is”, “was also noted: such” for “is noted, for example,”
In the results of FIG. 1, the test compounds were singly applied to the skin above the upper lips as a ˜1% wt/vol (10 mg/ml) ointment. Subsequently, for the results shown in Table 3, the test dose on the philtrum was reduced to a 0.5% wt/vol (5 mg/ml) ointment. The reason for choosing a lower dose was to increase the number of trials per individual and to have a reduced chance of substances accumulating in the skin.

ocular surface = assay: Eye wipe test, duration of cooling on ocular surface; type: in vivo, human; settings: eye wipes 1 mg/ml in 5%-95% v/v ethanol-distilled water
Experimental: To further document the activities fo the test molecules, the results from an eye wipe test was included. Here the test substance is applied to the closed eyelids with a towelette at a concentration of 1 mg/ml in 5%-ethanol-95%-distilled water vol/vol and the duration of cooling on the ocular surface was recorded. […] It is likely that the mucous membranes that line the ocular surface and the pharynx have similar sensory mechanisms that are somewhat different from the philtrum skin which is keratinized.

pharyngeal surface = assay: Chili-pepper sauce cough challenge test; type: in vivo, human; design: key: If there is no attenuation of the challenge stimuli, the score is 0; if there is partial inhibition, the score is +; if there is complete attenuation of the cough signal, the score is ++; settings: challenge 45 to 50 min after ODT containing 2 mg of test substance
Excerpt: A number of cough challenge methods have been devised for evoking the cough reflex (Morice et al. Briti. J. Clin. Pharmacol. 52: 365-375, 2001). Usually, citric acid or capsaicin is delivered via the inhalation route to volunteers and the number of coughs counted. […] The chili pepper sauce used here is called Yank Sing® Chili Pepper Sauce (YS Gourmet Productions, Inc., PO Box 26189, San Francisco, Calif. 94126) and is a well-known condiment for use with dim sum (Chinese tea lunch). The sensations associated with the chili pepper sauce are located in the back of the mouth and are clearly recognized and associated with a desire to clear the throat. […] To test for anti-cough activity the ODT with the test substance is first administered onto the dorsal surface of the tongue and 45 to 50 min afterwards the chili-pepper sauce test is administered. If there is no attenuation of the challenge stimuli, the score is 0, if there is partial inhibition, the score is +, and if there is complete attenuation of the cough signal, the score is ++. In the presence of an ODT that results in a ++ score, the irritative signals are completely absent, yet the salty taste used in the soy sauce of the condiment can still be easily tasted. The test substances in the ODT that produced a ++ score were then identified and further tested for effectiveness in the treatment of cough.

cough = type: in vivo, human
Experimental: In 20 trials, 10 trials per subject, two mg of 95%+ pure powder of a D-Ala ethyl compound (No. 2 in Table 1, (R)-2-[((1R,2S,5R)-2-isopropyl-5-methyl-cyclohexanecarbonyl)-amino]-propionic acid ethyl ester)) of Formula (1) was placed on the mid-portion of the tongue of these two subjects. Both subjects reported relief from the desire to cough within 1 minute after application. Sensations of robust coolness in the back of the throat was noted and lasted for about 30 minutes. Applications of similar amounts of powdered sugar were not effective. The placebo could be clearly distinguished from the active compound because of the absence of cooling sensations.
A person with a documented 31-year history of asthma attacks volunteered to test one of the compounds falling within Formula (1). They were extremely sensitive to agents such as tobacco smoke, dust, pollen, odors, down/woolen materials, house cleansing products, pets, and sudden change of air temperature, and reacted with violent coughing, mucus secretions, wheezing, choking, and shortness of breath. At the time of this trial, they were taking these medications for their condition: theophylline, Allegra®, Advair®, Intal®, and Singulair®. In 5 trials, during a coughing spree, they placed one to two mg of 95%+ pure powder of a D-Ala ethyl ester (No. 2 in Table 1, ((R)-2-[((1R,2S,5R)-2-isopropyl-5-methyl-cyclohexanecarbonyl)-amino]-propionic acid ethyl ester))) of Formula (1) on the mid-portion of their tongue. They reported a soothing and cool sensation with a slight taste similar to Eucalyptus oil in their mouth and throat. Coughing stopped after 3 to 5 minutes and breathing was normal. […] In three trials when the compound was applied at night, they slept through the night without being awakened by cough. Their spouse remarked that, in over 30 years of marriage, this was the first time that they had seen an effective medication for their cough. They noted that the irritative signals of cough were absent in the presence of the applied chemical, but they still sensed a mechanical build up of secretions in their airways and could voluntarily cough up such secretions if necessary. They continue to use the test compound for management of their asthma, with the knowledge and consent of their physician.
A person had adult-onset asthma for 20 years. Triggers for attacks were tobacco smoke, dust, and changes in air temperature. They used Foradil® (formoterol fumarate) and Asmanex® (mometasone fuorate) twice a day to control their asthma, and monitored their pulmonary function with a portable device for measuring peak expiratory flow. They had daily episodes of both productive and non-productive cough. In 5 trials, when they felt throat irritation and a desire to cough, placement of 1 to 3 mg of (R)-2-[((1R,2S,5R)-2-isopropyl-5-methyl-cyclohexanecarbonyl)-amino]-propionic acid ethyl ester) (No. 2 in Table 1) provided rapid relief and was described as soothing and removed “tightness” in the chest. Peak expiratory flow improved from 320 Umin to 370 Umin. […] The subjective response to the long-acting NACE compound was definitely favourable. The subject remarked that the best time to use the NACE compuound was after inhaling the crystalline Foradil® because this inhaled drug irritated their throat.
ODT containing 2.0 to 2.5 mg of D-Aa Me Ester, D-Ala Et Ester, or D-Ala iPr Ester (identified chemically in Table 1 as No. 1, No. 2, and No. 3, respectively) were prepared using mannitol/maltitol as the excipient and stored in tic-tac boxes each containing 10 tablets. Over a course of two years, 14 adult males with cough tested these tablets. The causes of coughing were colds/flu, allergies, pharyngitis, excessive smoking, and two cases of gastroesophageal reflux. These individuals all had advanced degrees (M.D. or Ph.D.) and were motivated to try the tablets by scientific curiosity or because of financial interests in drug development, or, in several cases, by the annoyance caused by the cough. […]

[3] = tested on: dorsal surface of the tongue; settings: average of 6 subjects, filter paper on tongue; Watson et al.; cited from earlier work

Question: What does the source list for CNC(=O)C(C)(C(C)C)C(C)C [WS-23]?
Answer: sensory irritation in oral cavity (oral cavity / oropharynx): some sensory irritation; duration / onset of action on the skin (philtrum skin [1]): short duration of action (less than 1 hour) at ˜10 mg/ml on the skin or slow onset (more than 5 minutes)

Question: With COc1ccc(NC(=O)[C@@H]2C[C@H](C)CC[C@H]2C(C)C)cc1 [WS-12] as the compound, how does the “duration / onset of action on the skin” value (philtrum skin [1]) read?
Answer: short duration of action (less than 1 hour) at ˜10 mg/ml on the skin or slow onset (more than 5 minutes)

Question: Which results are given for CCCCOC(=O)CNC(=O)[C@@H]1C[C@H](C)CC[C@H]1C(C)C [Gly-OnBu]?
Answer: Philtrum Skin (min), duration of cooling (philtrum skin [2]): 38 min; Eyelids/Ocular Surface (min), duration of cooling (ocular surface): 35 min; Chili-Pepper Sauce Test (pharyngeal surface): 0

Question: For CCOC(=O)C(C)NC(=O)[C@@H]1C[C@H](C)CC[C@H]1C(C)C (stereo partly drawn) [L-Ala-OnPr], which “Philtrum Skin (min), duration of cooling” value (philtrum skin [2]) is on record?
Answer: 22 min

Question: And the “Eyelids/Ocular Surface (min), duration of cooling” value (from here on “Eyelids/Ocular Surface (min)”) (ocular surface)?
Answer: 10 min

Question: And the “Chili-Pepper Sauce Test” value (pharyngeal surface)?
Answer: 0

Question: Which results are given for CC(C)OC(=O)[C@@H](C)NC(=O)[C@@H]1C[C@H](C)CC[C@H]1C(C)C [D-Ala-OiPr, (R)-2-[((1R,2S,5R)-2-isopropyl-5-methyl-cyclohexanecarbonyl)-amino]-propionic acid isopropyl ester]?
Answer: Philtrum Skin (min), duration of cooling (philtrum skin [2]): 34 min; skin or eye irritancy (philtrum skin [2]; in vivo): without skin or eye irritancy; Eyelids/Ocular Surface (min), duration of cooling (ocular surface): 360 min; Chili-Pepper Sauce Test (pharyngeal surface): ++; cooling action of ODT on the pharyngeal surface (cough; Study 6, ODT): robust cooling action; effectiveness in reducing cough (cough; Study 6, ODT 2.0 to 2.5 mg, 14 adult males with cough): 100%

Question: What does the source list for CCOC(=O)C(C)NC(=O)[C@@H]1C[C@H](C)CC[C@H]1C(C)C (stereo partly drawn) [L-Ala-OnBu]?
Answer: Philtrum Skin (min), duration of cooling (philtrum skin [2]): 0 min; Eyelids/Ocular Surface (min), duration of cooling (ocular surface): 0 min; Chili-Pepper Sauce Test (pharyngeal surface): 0

Question: Which “Philtrum Skin (min), duration of cooling” value (philtrum skin [2]) does the source give for CCCOC(=O)CNC(=O)[C@@H]1C[C@H](C)CC[C@H]1C(C)C [Gly-OnPr] here?
Answer: 42 min

Question: What about the “Eyelids/Ocular Surface (min)” value (ocular surface) of the same compound?
Answer: 54 min

Question: What about the “Chili-Pepper Sauce Test” value (pharyngeal surface) of the same compound?
Answer: 0

Question: For CCOC(=O)C(C)NC(=O)[C@@H]1C[C@H](C)CC[C@H]1C(C)C (stereo partly drawn) [L-Ala-OiPr], which “Philtrum Skin (min), duration of cooling” value (philtrum skin [2]) is on record?
Answer: 27 min

Question: And the “Eyelids/Ocular Surface (min)” value (ocular surface)?
Answer: 15 min

Question: What about the “Chili-Pepper Sauce Test” value (pharyngeal surface) of the same compound?
Answer: 0

Question: Which “Philtrum Skin (min), duration of cooling” value (philtrum skin [2]) does the source give for CCCCOC(=O)C(C)NC(=O)[C@@H]1C[C@H](C)CC[C@H]1C(C)C (stereo partly drawn) [D-Ala-OnBu] here?
Answer: 80 min

Question: And the “Eyelids/Ocular Surface (min)” value (ocular surface)?
Answer: 40 min

Question: And the “Chili-Pepper Sauce Test” value (pharyngeal surface)?
Answer: 0

Question: Which “sensory irritation in oral cavity” value (oral cavity / oropharynx) does the source give for CCNC(=O)C1CC(C)CCC1C(C)C (stereo not drawn) [WS-3] here?
Answer: some sensory irritation

Question: What about the “duration / onset of action on the skin” value (philtrum skin [1]) of the same compound?
Answer: short duration of action (less than 1 hour) at ˜10 mg/ml on the skin or slow onset (more than 5 minutes)

Question: What does the source list for CC1CCC(C(C)C)C(O)C1 (single isomer, unassigned; (-)) [(−)-menthol, reference compound]?
Answer: Acts for >1 hour at 40 mM (philtrum skin [2]; 40 mM ointment on skin): no; "perfect" cooling experience (philtrum skin [2]; Table 2 summary): no; Cooling on skin of face (philtrum skin [2]; Table 2 summary): yes; Eye Irritancy (philtrum skin [2]; Table 2 summary): yes; duration of cooling action of ODT (oral cavity / oropharynx; ODT containing 5 to 10 mg): less than 10 minutes; Cooling on tongue (oral cavity / oropharynx; Table 2 summary): yes; Threshold, μg (cooling on tongue) [3]: 0.25 µg

Question: For CCCOC(=O)C(C)NC(=O)[C@@H]1C[C@H](C)CC[C@H]1C(C)C (stereo partly drawn) [D-Ala-OnPr], which “Philtrum Skin (min), duration of cooling” value (philtrum skin [2]) is on record?
Answer: 108 min

Question: What about the “Eyelids/Ocular Surface (min)” value (ocular surface) of the same compound?
Answer: 65 min

Question: And the “Chili-Pepper Sauce Test” value (pharyngeal surface)?
Answer: +
